# Experiments:
# [1] = system: T regulatory cells (FoxP3+, CD4+, CD25+) in mesenteric lymph nodes; experiment: T-regulatory cells in mesenteric lymph nodes of orally supplemented mice, by flow cytometry; type: in vivo; settings: oral 7.5 mg daily for 5 days versus PBS, day six, FIG. 3
# Procedure: Mice were orally supplemented with 7.5 mg of 2′FL in 200 μL of PBS (n=5) or 200 μL of PBS (n=5) daily for 5 days. On day six, mice were sacrificed and lymphocytes from mesenteric lymph nodes were removed and isolated using standard methods. Mesenteric lymph node lymphocytes (MLNLs) were stained with fluorochrome labeled monoclonal antibodies specific for CD4 and CD25 surface markers. Cells were then fixed with a paraformaldehyde solution to maintain surface marker staining integrity. Stained MLNLs were permeabilized with a saponin-based solution to allow for intracellular uptake of monoclonal antibodies and then stained with a fluorochrome labeled monoclonal antibody specific for the transcription factor FoxP3. All cell preparation methods used were based on recommendations of the monoclonal antibody manufacturer. MLNL suspensions were analyzed by flow cytometery. FoxP3^+, CD4^+, and CD25^+ cells are classified T regulatory cells.
# [2] = system: Peripheral blood mononuclear cells (PBMCs); experiment: PBMC proliferation by tritiated thymidine incorporation, with or without the T-cell mitogen PHA; type: cell-based, piglets; settings: 72 hours; for unstimulated peripheral blood mononuclear cell proliferation: HMO or HMO mixture 125 μg/mL alone (no PHA), FIG. 2; for PHA-stimulated peripheral blood mononuclear cell proliferation: HMO or HMO mixture 125 μg/mL with 25 μg/mL PHA, compared to cultures containing no HMO, FIG. 1
# Procedure: T-cell mediated responses were assessed by proliferative responses to the T-cell mitogen phytohemagglutinin (PHA) (simulates infection). […] Peripheral blood mononuclear cells (PBMCs) were isolated using standard density gradient (Ficoll-Paque PLUS) techniques. Residual red blood cells were lysed with a hypotonic ammonium chloride solution. Cells were washed and resuspended in RPMI (Roswell Park Memorial Institute medium) media containing: 10% fetal bovine serum, 2 mM Glutamine, 1 mM sodium pyruvate, 20 mM HEPES (4-(2-hydroxyethyl)-1-piperazineethanesulfonic acid), 50 μg/mL gentamicin, 1000 IU/mL penicillin and 100 μg/mL streptomycin, at a concentration of 1×10^6/mL, and then cultured in the presence or absence of the individual HMOs or HMO mixtures at a concentration of 125 μg/mL, alone or in combination with 25 μg/mL PHA. Cells were cultured for 72 hours, and cellular proliferation was determined using standard tritiated thymidine incorporation methodology.
# [3] = system: gastrointestinal epithelial cells; settings: Kuntz et al (2008); cited from earlier work
Compound,unstimulated peripheral blood mononuclear cell proliferation [2],PHA-stimulated peripheral blood mononuclear cell proliferation [2],also measured
2′-fucosyllactose [2′FL],decreased unstimulated peripheral blood mononuclear cell proliferation,,percentage of T-regulatory cells in mesenteric lymph nodes [1]: generation of T regulatory cells
3-fucosyllactose [3′FL],decreased unstimulated peripheral blood mononuclear cell proliferation,,
"CC(=O)N[C@H]1[C@H](O[C@H]2[C@@H](O)[C@@H](CO)O[C@@H](O[C@H]3[C@H](O)[C@@H](O)C(O)O[C@@H]3CO)[C@@H]2O)O[C@H](CO)[C@@H](O[C@@H]2O[C@H](CO)[C@H](O)[C@H](O)[C@H]2O)[C@@H]1O (mixture of isomers) [LNnT, Lacto-N-neotetraose]",this was not seen,did not significantly enhance proliferation,
Fucosyllactose [FL],,did not significantly enhance proliferation,
sialyllactose [SL],,,differentiation of gastrointestinal epithelial cells [3]: increases differentiation; proliferation of gastrointestinal epithelial cells [3]: decreases proliferation
